Experimental data: patent publication US6518014B1, “Hepadnavirus cores” (priority 1996, dated 2003)
*1 amine or outer side, *2 acyl side, *3 side chain or, on linkers, in order; H or OH if unused. Where a SMILES comes first, the peptide text is derived from it. Bridges are numbered along the chain shown (N, C = ends). Roman numbers before positions name the chains, in order. [ ]: non-standard residue; d: D form. Actinocin(9to1) = Cc1c2oc3c(C)ccc(C(=O)[*:1])c3nc-2c(C(=O)[*:2])c(N)c1=O; NMeV = CN[C@H](C(=O)O)C(C)C; Sar = CNCC(=O)O

Tests used:
hepadnavirus polymerase [1] = molecular target: T1, hepadnavirus polymerase (Hepatitis B virus genotype D subtype ayw, UniProt P03156); test: Endogenous polymerase assay (EPA) with size analysis of endogenously labeled DNA from nucleocapsids, actinomycin D comparative sample; assay type: biochemical; conditions: 80-100 μg per ml actinomycin D in comparative sample
T1 construct: made in house; host or cells: Spodoptera frugiperda SF9 cells infected with recombinant baculoviruses (pVL1393-derived)
Description: The beads were resuspended in 50 μl EPA reaction mix (50 mM Tris-HCl, pH 7.4, 75 mM NH4Cl, 1 mM EDTA, 20 mM MgCl2, 0.1 mM β-mercaptoethanol, 0.5% Tween 20, 50 μM dNTP mix (Ultrapure, Pharmacia, Uppsala, Sweden)), and the resulting suspension was incubated at 37° C. for 6 h.
The beads were washed once with 800 μl IP wash buffer (50 mM Tris-HCl, pH 7.4, 150 mM NaCl, 5 mM EDTA, 1% Triton-X 100, 0.02% SDS) and resuspended in 50 μl TNE (10 mM Tris-HCl, pH 7.4, 150 mM NaCl, 1 mM EDTA) containing 1% SDS and 10 mM dithiothreitol. The beads were then heated to boiling temperature (100 C) for 7 min to disintegrate the capsids, and the supernates isolated by centrifugation and transferred to microfuge cups, with the supemates from […] parallel reactions combined in each microfuge cup. […]
The synthesis that is actinomycin D sensitive is measured with the above-described EPA assay where 80-100 μg per ml of actinomycin D are added in a comparative sample.
SF9 cells were harvested 90 hours postinfection with recombinant viruses (a) BV-ECPE, (b) BV-EC+BV-PDE, (c) BV-EC and (d) BV-PDE. […] Immunoprecipitated core particles were subjected to EPA as described above, and deproteinized nucleic acids isolated from the assay samples were analyzed on a 1% agarose gel, and visualized by autoradiography. […]

hepadnavirus polymerase [2] = molecular target: T1, hepadnavirus polymerase; test: In vitro polymerase activity of isolated core particles in the presence of Actinomycin D; assay type: biochemical; conditions: 100 μg/ml Actinomycin D; (−) strand synthesis from an RNA template
Text: This observation further confirms that the primary activity observed is the (−) strand synthesis from an RNA template. Site-directed mutagenesis has been used to change an tyr-met-asp-asp (SEQ ID NO:16) sequence in the HBV polymerase active site to a tyr-met-his-ala (SEQ ID NO:17) sequence, a mutation that has been previously shown to destroy polymerase activity. See, for example, Seifer and Strandring, Intervirology 38:295-303,1995; Wang & Seeger, Cell 71:663-670, 1992. For an analogous active site mutation, see Radziwill et al., J. Virol. 64:613-620,1990. When this mutant is used in the methods of the invention to create core particles, the core particles lack polymerase activity. This observation confirms that it is indeed hepadnavirus polymerase activity that is being observed in the core particles of the invention.
A 96 well plate was prepared with wells containing either various dilutions of test sample containing a prospective bioactive agent, a positive control, a known hepadnavirus polymerase inhibitor, or an EDTA sample for which no polymerase activity should be detected and which thus indicates, after the assay processing, non-specific, background radioactivity. The plate has eight rows of wells, A through H, and twelve columns of wells, 1 through 12. […]
The background radioactivity determined from column 12, wells E through H, was subtracted from all of the remaining values. […]

T1 sequence (P03156 whole entry): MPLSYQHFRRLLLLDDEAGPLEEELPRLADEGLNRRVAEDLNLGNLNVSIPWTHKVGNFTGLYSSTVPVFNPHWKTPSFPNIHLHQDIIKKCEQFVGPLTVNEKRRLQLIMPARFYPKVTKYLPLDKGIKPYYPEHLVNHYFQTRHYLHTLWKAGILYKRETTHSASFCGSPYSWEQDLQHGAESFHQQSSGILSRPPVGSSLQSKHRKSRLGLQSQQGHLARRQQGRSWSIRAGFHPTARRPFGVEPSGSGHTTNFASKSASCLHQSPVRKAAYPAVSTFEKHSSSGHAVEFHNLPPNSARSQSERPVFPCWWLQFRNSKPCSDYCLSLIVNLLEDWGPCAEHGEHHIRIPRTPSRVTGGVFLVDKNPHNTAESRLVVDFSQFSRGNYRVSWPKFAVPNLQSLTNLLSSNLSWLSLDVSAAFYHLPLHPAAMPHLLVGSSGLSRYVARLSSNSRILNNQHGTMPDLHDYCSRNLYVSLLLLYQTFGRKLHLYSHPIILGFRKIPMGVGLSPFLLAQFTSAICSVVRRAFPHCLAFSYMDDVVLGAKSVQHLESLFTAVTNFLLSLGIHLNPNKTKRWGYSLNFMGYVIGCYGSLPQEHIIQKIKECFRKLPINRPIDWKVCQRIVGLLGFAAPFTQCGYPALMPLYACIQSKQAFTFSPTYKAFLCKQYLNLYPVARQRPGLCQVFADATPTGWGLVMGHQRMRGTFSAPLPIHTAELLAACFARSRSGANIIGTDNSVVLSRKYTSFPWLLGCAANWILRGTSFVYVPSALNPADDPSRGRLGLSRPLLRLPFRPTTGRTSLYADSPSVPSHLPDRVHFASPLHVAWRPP

SMILES: Cc1c2oc3c(C)ccc(C(=O)N[C@@H]4C(=O)N[C@H](C(C)C)C(=O)N5CCC[C@H]5C(=O)N(C)CC(=O)N(C)[C@@H](C(C)C)C(=O)O[C@@H]4C)c3nc-2c(C(=O)N[C@@H]2C(=O)N[C@H](C(C)C)C(=O)N3CCC[C@H]3C(=O)N(C)CC(=O)N(C)[C@@H](C(C)C)C(=O)O[C@@H]2C)c(N)c1=O [Actinomycin D] (I: T[dV]P[Sar][NMeV] / II: T[dV]P[Sar][NMeV]; ester I:1-I:C, II:1-II:C; linker I:N-II:N via Actinocin(9to1))
- actinomycin D sensitivity of EPA product nucleic acids, trans cores (hepadnavirus polymerase [1]; BV-EC+BV-PDE (trans) cores from SF9 cells): not the trans products
- actinomycin D sensitivity of EPA product nucleic acids, cis cores (hepadnavirus polymerase [1]; BV-ECPE (cis) cores from SF9 cells): mostly actinomycin D sensitive
- polymerase activity exhibited by core particles in the presence of Actinomycin D (hepadnavirus polymerase [2]): active
